The results in this text go back to US11122826B2, “Organic compounds” (GIVAUDAN S.A., priority 2013, dated 2021).

SMILES strings stand for the structures.

A short description of the test: Taste evaluation by a panel of experienced tasters in Kikkoman low salt soy sauce. Conditions: 0.25 ppm dosed to Kikkoman low salt soy sauce (1 g salt/100 ml). On the procedure:
Blanco Verdunde Kikkoman low Salt 1 g Salt/100 ml
The samples were evaluated by a panel of experienced tasters.

With `CCCCCCCC/C=C\CCCCCCCC(=O)NC(C)(C)C(=O)O` [2-methyl-2-oleamidopropanoic acid, 2-methyl-2-oleamidopropanoic Acid], the “taste of the sample as agreed by the panel” value (“taste of the sample as agreed” below) was “cleaner, more upfront body, salty, less fermented, more upfront, more salty bitter and sweet, fermented”. For `CCCCCCCCCCCCCCCC(=O)NC(C)(C)C(=O)O` [2-methyl-2-palmitamidopropanoic acid, 2-methyl-2-palmitamidopropanoic Acid], the “taste of the sample as agreed” value was “strong salty, more upfront, fermented, slightly bitter and sweet”. Regarding `CCCCCCCCCCCCCCCCCC(=O)NC(C)(C)C(=O)O` [2-methyl-2-stearamidopropanoic acid, 2-methyl-2-stearamidopropanoic Acid], the “taste of the sample as agreed” value is “salty upfront, no aftertaste expanding, bitter aftertaste not negative, more upfront salty, not as bitter and sweet, fermented”.
